Measurements published in ChEMBL document CHEMBL1124376, “Topically active carbonic anhydrase inhibitors. 2. Benzo[b]thiophenesulfonamide derivatives with ocular hypotensive activity” (J Med Chem, 1989).
Active and inactive are the calls of the source. The calls are words filed in the database; no cut-off is given here.

Each compound was assayed against T1, Carbonic anhydrase 2 (Homo sapiens, UniProt P00918) (assay: Concentration of inhibitor required to reduce the rate of carbonic anhydrase II catalyzed CO2 hydration by 50%.). Conditions: read-out: I50.

| SMILES | IC50 [nM] |
| --- | --- |
| CC(C)(C)C(=O)Oc1ccc2cc(S(N)(=O)=O)sc2c1 | 2.6 |
| CC(=O)Oc1ccc2cc(S(N)(=O)=O)sc2c1 | 4 |

What follows are compounds tested on Oryctolagus cuniculus (assay: Reduction in maximum Intra ocular pressure in the rabbit model of ocular hypertension, when treated with a minimum effective oral dose of 1.25 mg/kg). Conditions: not given.
Assay type: functional, Eye

| SMILES | Activity [mmHg] |
| --- | --- |
| CC(=O)Nc1nnc(S(N)(=O)=O)s1 [ACETAZOLAMIDE] | -6.3 |
| NS(=O)(=O)c1cc2ccc(O)cc2s1 | -7.7 |

What follows are compounds tested on Oryctolagus cuniculus (assay: Reduction in maximum Intra ocular pressure in the rabbit model of ocular hypertension, when treated with a minimum effective oral dose of 10 mg/Kg; NE is No Effect). Conditions: Eye.
Assay type: functional, organism-based

| SMILES | Activity |
| --- | --- |
| CC(=O)Nc1nnc(S(N)(=O)=O)s1 [ACETAZOLAMIDE] | inactive |

These compounds were tested against T1, Carbonic anhydrase 2 (assay: not given). Conditions: not given.

| SMILES | IC50 [nM] |
| --- | --- |
| NS(=O)(=O)c1cc2c(O)cccc2s1 | 12 |
| COCc1ccc2sc(S(N)(=O)=O)cc2c1 | 9 |
| COc1ccc2sc(S(N)(=O)=O)cc2c1 | 23 |
| NS(=O)(=O)c1cc2cc(CO)ccc2s1 | 9 |
| CN(C)C(=O)Oc1ccc2sc(S(N)(=O)=O)cc2c1 | 5 |
| NS(=O)(=O)c1cc2ccc(OP(=O)(O)O)cc2s1 | 100 |
| CC(=O)Nc1ccc2cc(S(N)(=O)=O)sc2c1 | 4.8 |
| NS(=O)(=O)c1cc2cc(O)ccc2s1 | 6.2 |
| NS(=O)(=O)c1cc2ccc(OS(=O)(=O)O)cc2s1 | 6.8 |
| NS(=O)(=O)c1cc2ccccc2s1 | 5.2 |
| CC(=O)OCc1ccc2sc(S(N)(=O)=O)cc2c1 | 10 |
| CN(C)Cc1ccc2sc(S(N)(=O)=O)cc2c1 | 12 |
| NS(=O)(=O)c1cc2cc(CN3CCOCC3)ccc2s1 | 15 |
| CN(C)CCSCc1ccc2sc(S(N)(=O)=O)cc2c1 | 15 |
| COc1cccc2sc(S(N)(=O)=O)cc12 | 12 |
| Nc1ccc2cc(S(N)(=O)=O)sc2c1 | 10 |
| CC(C)COC(=O)Oc1ccc2cc(S(N)(=O)=O)sc2c1 | 5.6 |
| CC(C)(C)N1CC(COc2ccc3cc(S(N)(=O)=O)sc3c2)OC1=O (configuration not stated) | 8 |
| COc1cccc2cc(S(N)(=O)=O)sc12 | 50 |
| COc1ccc2cc(S(N)(=O)=O)sc2c1 | 8.8 |
| CC(=O)c1ccc2cc(S(N)(=O)=O)sc2c1 | 6 |
| NS(=O)(=O)c1cc2cccc(O)c2s1 | 11 |
| CC(C)(C)NCC(O)COc1ccc2cc(S(N)(=O)=O)sc2c1 (configuration not stated) | 18 |
| NS(=O)(=O)c1cc2ccc(OCC(=O)O)cc2s1 | 14 |

Each compound was assayed on Oryctolagus cuniculus (assay: Reduction in maximum Intra ocular pressure in the rabbit model of ocular hypertension, when treated with a minimum effective topical dose of 5%). Conditions: not given.

| SMILES | Activity [mmHg] |
| --- | --- |
| CC(=O)/N=c1/sc(S(N)(=O)=O)nn1C [METHAZOLAMIDE] | -5.1 |

Each compound was assayed on Oryctolagus cuniculus (assay: Reduction in maximum Intra ocular pressure in the rabbit model of ocular hypertension, when treated with a minimum effective topical dose of 10%). Conditions: not given.

| SMILES | Activity [mmHg] |
| --- | --- |
| NS(=O)(=O)c1cc(Cl)c(Cl)c(S(N)(=O)=O)c1 [DICHLORPHENAMIDE] | -4.7 |

The compounds below were run on Oryctolagus cuniculus (assay: Reduction in maximum Intra ocular pressure in the rabbit model of ocular hypertension, when treated with a minimum effective topical dose of 0.10%). Conditions: not given.

| SMILES | Activity [mmHg] |
| --- | --- |
| NS(=O)(=O)c1cc2ccc(O)cc2s1 | -6.6 |

Tested on: Oryctolagus cuniculus
Experiment: as above
Conditions: not given
Remark: another data set of the same source

| SMILES | Activity [mmHg] |
| --- | --- |
| CC(=O)Oc1ccc2cc(S(N)(=O)=O)sc2c1 | -5.3 |

Each compound was assayed on Oryctolagus cuniculus (assay: Reduction in maximum Intra ocular pressure in the rabbit model of ocular hypertension, when treated with a minimum effective topical dose of 0.25%). Conditions: not given.

| SMILES | Activity [mmHg] |
| --- | --- |
| CC(C)(C)C(=O)Oc1ccc2nc(S(N)(=O)=O)sc2c1 | -7.8 |

The compounds below were run on Oryctolagus cuniculus (assay: Reduction in maximum Intra ocular pressure in the rabbit model of ocular hypertension, when treated with a minimum effective topical dose of 0.05%). Conditions: not given.

| SMILES | Activity [mmHg] |
| --- | --- |
| CC(C)(C)C(=O)Oc1ccc2cc(S(N)(=O)=O)sc2c1 | -4.7 |
| NS(=O)(=O)c1cc2ccc(O)cc2s1 | -5.6 |

What follows are compounds tested on Oryctolagus cuniculus (assay: Reduction in maximum Intra ocular pressure in the rabbit model of ocular hypertension, when treated with a minimum effective topical dose of 10%; NE means No Effect). Conditions: Eye.

| SMILES | Activity |
| --- | --- |
| CCOc1ccc2nc(S(N)(=O)=O)sc2c1 | inactive |
